According to patent US20220326244A1, “METHODS FOR DIAGNOSIS, PROGNOSIS, AND TREATMENT OF CANCER” (The Boardof Trustees of the Leland Stanford Junort …, priority 2019, published 2022):

Experiments:
[1] = test system: NK-92 cells; assay: PMA-stimulated degranulation and intracellular cytokine production of NK-92 cells (CyTOF); assay type: cell-based, human; settings: mono- and coculture; PMA 4 h exposure
Excerpt: Intracellular cytokine production of CD9+ and CD9− NK-92 cells. One of the mechanisms by which dNK cells exert immune tolerance is through poor cytotoxic responses and secretion of a specific set of cytokines. Thus, we hypothesized that trogocytosis and the acquisition of CD9 by NK-92 cells endows them with features of immune tolerance. Therefore, we measured the intracellular expression levels of cytolytic proteins (perforin and granzyme B), anti-tumor cytokines ([…], TNFα, GM-CSF, IFNγ), the proangiogenic cytokine IL-8, the immunosuppressive cytokine IL-10, and CD107a, a marker for degranulation in both CD9+ and CD9− NK-92 cells after coculture with HGSC cells lines. Specifically, we measured NK-92 cell function before and after coculture in response to phorbol-12-myristate-13-acetate (PMA). Exposing cocultures to PMA circumvents upstream NK receptor signaling and is a convenient method for measuring NK cell function. In a pilot study, we determined that a coculture time of 6 h produced the most robust intracellular cytokine production (ICP). Therefore, NK-92 and HGSC cell lines were cocultured for 6 h in the presence of PMA (4 h exposure) with brefeldin A and monensin added to block secretion (Materials and Methods). For all experiments, we used two positive controls. […]

[2] = test system: NK-92 cells cocultured with OVCAR4, Kuramochi and TYK-nu HGSC tumor cell lines; assay: Trogocytosis inhibition: CD9 acquisition by NK-92 cells in coculture with HGSC cell lines; assay type: cell-based, human
Experimental: To further confirm that the mechanism of CD9 acquisition by NK-92 cells was through trogocytosis we performed an additional series of experiments. Many studies have shown that inhibitors of actin polymerization block trogocytosis but that the effect of these inhibitors vary depending on the cell type.
(§1) Trogocytosis inhibition. NK-92 cells were pre-treated with cytochalasin D (10 μM in complete media) for 2 h. They were then co-cultured with cancer cell lines as indicated in a ratio of 1:1 in the continuous presence of cytochalasin D for a further 2 h after which cells were stained with antibodies against CD9, CD45 and processed prior to CyTOF analysis as described above.

[3] = test system: NK-92 cells cocultured with non-HGSC tumor cell lines; assay: Trogocytosis inhibition: CD9 uptake by NK-92 cells in coculture with non-HGSC cell lines; assay type: cell-based, human
Excerpt: Evaluation of NK-92 trogocyctosis from non-HGSC cell lines. In order to determine whether NK-92 CD9 trogocytosis was a feature of non-HGSC tumor cells, we established the frequency of CD9-expressing cells in 15 non-HGSC as well as 11 HGSC tumor cell lines (FIG. 6A). The frequency and levels of CD9-expressing tumor cells varied across the cell lines and are presented going from highest to lowest CD9 levels (FIGS. 6A and B). […] We therefore chose three non-HGSC tumor cell lines with high CD9 expression (HCT116, A431 and MCF7) and three with lower CD9 expression (HeLa, CaCo-2 and HepG2) for trogocytosis experiments (FIG. 6B). NK-92 trogocytosis from non-HGSC cell lines was highly varied, not correlated to CD9 levels and, aside from the HCT116 colorectal cancer cell line, less pronounced than from the HGSC cell lines (FIGS. 5C and 6C).
as §1

[4] = test system: HGSC cell lines (OVCAR4, Kuramochi, TYK-nu); assay: Carboplatin exposure of the three HGSC cell lines, CyTOF (stated for all lines together); assay type: cell-based
Experimental: (§2) FIG. 4. Responses to carboplatin across E, EV and V HGSC cell lines. OVCAR4 (E), Kuramochi (EV) and TYK-nu (V) cell lines exposed to vehicle or carboplatin at 0.5 or 1 μg/ml for 1 week were processed for CyTOF with the tumor NK receptor ligand/ADAM antibody panel. The parent population is defined as viable single cells negative for cisplatin and cPARP. The plots show frequencies of HGSC cells expressing activating and inhibitor NK receptor ligands (X-axis) gated out of the parent population (Y-axis). Plots show the mean of triplicates with standard deviations. p-values: *≤0.05, **≤0.005, for overall ANOVA.
(§3) Changes in NK receptor ligand expression levels in response to carboplatin. It is well established that activation of the DNA damage response with genotoxic agents increases the expression of ligands for NKG2D and DNAM1 thereby making a “stressed” cell more susceptible to NK cell killing. We therefore exposed the three HGSC cell lines to carboplatin, a genotoxic agent that is part of the standard-of-care regimen for women with HGSC. After one week, the HGSC cell lines were processed for CyTOF using the tumor/NK receptor ligand antibody panel (Table 12).
Sample Processing and Antibody Staining for CyTOF. Frozen, fixed single-cell suspensions of HGSC tumors or cell lines were thawed at room temperature. […]

[5] = test system: TYK-nu (V) cell line; assay: Carboplatin exposure of HGSC cell line, CyTOF with tumor NK receptor ligand/ADAM antibody panel; assay type: cell-based; settings: for frequency of cells expressing nectin 4: baseline 6%
Experimental: as §2, §3
(§4) Sample Processing and Antibody Staining for CyTOF. Frozen, fixed single-cell suspensions of HGSC tumors or cell lines were thawed at room temperature. For each sample, 1×10^6 cells were aliquoted into cluster tubes in 96 well plates and subjected to pre-permeabilization palladium barcoding. After barcoding, pooled cells were pelleted and incubated for 10 min at room temperature with FcX block (Biolegend) to block non-specific antibody binding. Cells were then incubated with antibodies against surface markers for 45 min at room temperature. Cells were permeabilized at 4° C. with methanol or 1× Permeabilization Buffer (eBioscience) (only for the CyTOF antibody panel designed to characterize intracellular cytokines, on ice for 10 min. Cells were subsequently stained with antibodies against intracellular markers for 1 h at room temperature, washed, and incubated with the ^191/193Ir DNA intercalator (Fluidigm) at 4° C. overnight. Cells were washed and resuspended in a solution of normalization beads before introduction into the CyTOF 2.

[6] = test system: OVCAR4 (E) cell line; assay: as above; assay type: cell-based; settings: for frequency of cells expressing nectin 4: OVCAR4, 1 week
Experimental: as §2, §3, §4

[7] = test system: Kuramochi (EV) cell line; assay: as above; assay type: cell-based; settings: for frequency of cells expressing nectin 4: baseline 15%
Experimental: as §2, §3, §4

CCCCCCCCCCCCCC(=O)O[C@@H]1[C@@H](C)[C@@]2(O)[C@@H](C=C(CO)C[C@]3(O)C(=O)C(C)=C[C@@H]23)[C@@H]2C(C)(C)[C@]12OC(C)=O [PMA, phorbol-12-myristate-13-acetate]
NK-92 cell degranulation (CD107a) and production of MIP1a [1]: robust responses

C=C1[C@@H](C)[C@H]2[C@H](Cc3ccccc3)NC(=O)[C@]23[C@H](OC(C)=O)/C=C/[C@@](C)(O)C(=O)[C@@H](C)C/C=C/[C@H]3[C@@H]1O [cytochalasin D]
reduction of CD9+ NK-92 cells ([2]; NK-92 pre-incubated 2 h with cytochalasin D, coculture in its presence with OVCAR4, Kuramochi and TYK-nu): 40-69%
inhibition of trogocytosis (HGSC cell line coculture) ([2]; pre-incubation of NK-92 cells with cytochalasin D (10 μM)): partial inhibition
CD9 uptake in NK-92 ([3]; non-HGSC cell lines, most marked for HCT116, MCF7 and CaCo2): partially inhibited
inhibition of trogocytosis (non-HGSC cell coculture) ([3]; preincubation of NK-92 cells with cytochalasin D (10 μM)): partial inhibition

N.N.O=C([O-])C1(C(=O)[O-])CCC1.[Pt+2] [carboplatin]
proportion of HGSC tumor cells that expressed NK inhibitory receptor ligands ([4]; all three cell lines, after carboplatin): increased
DNA damage response: pH2AX ([4]; carboplatin 0.5 or 1 μg/ml for 1 week): increase
frequency of cells expressing HLA-E ([5]; TYK-nu, after carboplatin 1 week): significant increases
frequency of cells expressing nectin 4 ([5]; TYK-nu, first listed of two carboplatin doses): 9%
frequency of cells expressing nectin 4 ([5]; TYK-nu, second listed of two carboplatin doses): 9%
CD111 in TYK-nu cells ([5]; after carboplatin 1 week): significant increase
frequency of cells expressing HLA-E ([6]; OVCAR4, after carboplatin 1 week): significant increases
frequency of cells expressing nectin 4 ([6]; first listed of two carboplatin doses (0.5 or 1 μg/ml), baseline 24%): 39%
frequency of cells expressing nectin 4 ([6]; second listed of two carboplatin doses (0.5 or 1 μg/ml), baseline 24%): 45%
frequency of OVCAR4 cells expressing ULBP2 ([6]; after carboplatin (0.5 or 1 μg/ml, 1 week), baseline 24%): 50%
frequency of cells expressing HLA-E ([7]; Kuramochi, after carboplatin 1 week): significant increases
frequency of cells expressing nectin 4 ([7]; Kuramochi, first listed of two carboplatin doses): 22%
frequency of cells expressing nectin 4 ([7]; Kuramochi, second listed of two carboplatin doses): 23%
frequency of Kuramochi cells expressing HLA-ABC ([7]; after carboplatin 1 week): significant increase
